For four compounds, Activity results are on record in ChEMBL document CHEMBL1153020, “Smart conferring of nuclease resistance to DNA by 3'-end protection using 2',4'-bridged nucleoside-5'-triphosphates” (Bioorg Med Chem Lett, 2009).

The data set is described as follows: Stability assessed as nuclease resistance. It counts as ADME.

Consider `Cc1cn([C@@H]2O[C@@]3(COP(=O)(O)OP(=O)(O)OP(=O)(O)O[C@H]4C[C@H](n5cc(C)c(=O)[nH]c5=O)O[C@@H]4COP(=O)(O)O[C@H]4C[C@H](n5cnc6c(=O)[nH]c(N)nc65)O[C@@H]4COP(=O)(O)O[C@H]4C[C@H](n5cnc6c(N)ncnc65)O[C@@H]4COP(=O)(O)O[C@H]4C[C@H](n5cnc6c(=O)[nH]c(N)nc65)O[C@@H]4COP(=O)(O)O[C@H]4C[C@H](n5cc(C)c(=O)[nH]c5=O)O[C@@H]4COP(=O)(O)O[C@H]4[C@@H](O)[C@H](n5cnc6c(=O)[nH]c(N)nc65)O[C@@H]4COP(=O)(O)O[C@H]4[C@@H](O)[C@H](n5cnc6c(N)ncnc65)O[C@@H]4COP(=O)(O)O[C@H]4C[C@H](n5cnc6c(=O)[nH]c(N)nc65)O[C@@H]4COP(=O)(O)O[C@H]4C[C@H](n5cc(C)c(=O)[nH]c5=O)O[C@@H]4COP(=O)(O)O[C@H]4C[C@H](n5cnc6c(N)ncnc65)O[C@@H]4COP(=O)(O)O[C@H]4C[C@H](n5cnc6c(N)ncnc65)O[C@@H]4COP(=O)(O)O[C@H]4C[C@H](n5cnc6c(=O)[nH]c(N)nc65)O[C@@H]4COP(=O)(O)O[C@H]4C[C@H](n5cc(C)c(=O)[nH]c5=O)O[C@@H]4COP(=O)(O)O[C@H]4C[C@H](n5cnc6c(=O)[nH]c(N)nc65)O[C@@H]4COP(=O)(O)O[C@H]4C[C@H](n5cnc6c(N)ncnc65)O[C@@H]4COP(=O)(O)O[C@H]4C[C@H](n5cnc6c(=O)[nH]c(N)nc65)O[C@@H]4COP(=O)(O)O[C@H]4C[C@H](n5cc(C)c(=O)[nH]c5=O)O[C@@H]4COP(=O)(O)O[C@H]4C[C@H](n5cnc6c(=O)[nH]c(N)nc65)O[C@@H]4COP(=O)(O)O[C@H]4C[C@H](n5cnc6c(N)ncnc65)O[C@@H]4COP(=O)(O)O[C@H]4C[C@H](n5cnc6c(=O)[nH]c(N)nc65)O[C@@H]4COP(=O)(O)O[C@H]4C[C@H](n5cc(C)c(=O)[nH]c5=O)O[C@@H]4COP(=O)(O)O[C@H]4C[C@H](n5cc(C)c(=O)[nH]c5=O)O[C@@H]4COP(=O)(O)O[C@H]4C[C@H](n5cnc6c(=O)[nH]c(N)nc65)O[C@@H]4COP(=O)(O)O[C@H]4C[C@H](n5ccc(N)nc5=O)O[C@@H]4COP(=O)(O)O[C@H]4C[C@H](n5cnc6c(=O)[nH]c(N)nc65)O[C@@H]4COP(=O)(O)O[C@H]4C[C@H](n5cnc6c(=O)[nH]c(N)nc65)O[C@@H]4CO)COC2[C@@H]3O)c(=O)[nH]c1=O`, for which the outcome was Active.

Take `Cc1cn([C@@H]2O[C@@]3(COP(=O)(O)OP(=O)(O)OP(=O)(O)O[C@H]4C[C@H](n5cc(C)c(=O)[nH]c5=O)O[C@@H]4COP(=O)(O)O[C@H]4C[C@H](n5cnc6c(=O)[nH]c(N)nc65)O[C@@H]4COP(=O)(O)O[C@H]4C[C@H](n5cnc6c(N)ncnc65)O[C@@H]4COP(=O)(O)O[C@H]4C[C@H](n5cnc6c(=O)[nH]c(N)nc65)O[C@@H]4COP(=O)(O)O[C@H]4C[C@H](n5cc(C)c(=O)[nH]c5=O)O[C@@H]4COP(=O)(O)O[C@H]4[C@@H](O)[C@H](n5cnc6c(=O)[nH]c(N)nc65)O[C@@H]4COP(=O)(O)O[C@H]4[C@@H](O)[C@H](n5cnc6c(N)ncnc65)O[C@@H]4COP(=O)(O)O[C@H]4C[C@H](n5cnc6c(=O)[nH]c(N)nc65)O[C@@H]4COP(=O)(O)O[C@H]4C[C@H](n5cc(C)c(=O)[nH]c5=O)O[C@@H]4COP(=O)(O)O[C@H]4C[C@H](n5cnc6c(N)ncnc65)O[C@@H]4COP(=O)(O)O[C@H]4C[C@H](n5cnc6c(N)ncnc65)O[C@@H]4COP(=O)(O)O[C@H]4C[C@H](n5cnc6c(=O)[nH]c(N)nc65)O[C@@H]4COP(=O)(O)O[C@H]4C[C@H](n5cc(C)c(=O)[nH]c5=O)O[C@@H]4COP(=O)(O)O[C@H]4C[C@H](n5cnc6c(=O)[nH]c(N)nc65)O[C@@H]4COP(=O)(O)O[C@H]4C[C@H](n5cnc6c(N)ncnc65)O[C@@H]4COP(=O)(O)O[C@H]4C[C@H](n5cnc6c(=O)[nH]c(N)nc65)O[C@@H]4COP(=O)(O)O[C@H]4C[C@H](n5cc(C)c(=O)[nH]c5=O)O[C@@H]4COP(=O)(O)O[C@H]4C[C@H](n5cnc6c(=O)[nH]c(N)nc65)O[C@@H]4COP(=O)(O)O[C@H]4C[C@H](n5cnc6c(N)ncnc65)O[C@@H]4COP(=O)(O)O[C@H]4C[C@H](n5cnc6c(=O)[nH]c(N)nc65)O[C@@H]4COP(=O)(O)O[C@H]4C[C@H](n5cc(C)c(=O)[nH]c5=O)O[C@@H]4COP(=O)(O)O[C@H]4C[C@H](n5cc(C)c(=O)[nH]c5=O)O[C@@H]4COP(=O)(O)O[C@H]4C[C@H](n5cnc6c(=O)[nH]c(N)nc65)O[C@@H]4COP(=O)(O)O[C@H]4C[C@H](n5ccc(N)nc5=O)O[C@@H]4COP(=O)(O)O[C@H]4C[C@H](n5cnc6c(=O)[nH]c(N)nc65)O[C@@H]4COP(=O)(O)O[C@H]4C[C@H](n5cnc6c(=O)[nH]c(N)nc65)O[C@@H]4CO)COCOC2[C@@H]3O)c(=O)[nH]c1=O`: the outcome was Active. For `Cc1cn([C@@H]2O[C@@]3(COP(=O)(O)OP(=O)(O)OP(=O)(O)O[C@H]4C[C@H](n5cc(C)c(=O)[nH]c5=O)O[C@@H]4COP(=O)(O)O[C@H]4C[C@H](n5cnc6c(=O)[nH]c(N)nc65)O[C@@H]4COP(=O)(O)O[C@H]4C[C@H](n5cnc6c(N)ncnc65)O[C@@H]4COP(=O)(O)O[C@H]4C[C@H](n5cnc6c(=O)[nH]c(N)nc65)O[C@@H]4COP(=O)(O)O[C@H]4C[C@H](n5cc(C)c(=O)[nH]c5=O)O[C@@H]4COP(=O)(O)O[C@H]4[C@@H](O)[C@H](n5cnc6c(=O)[nH]c(N)nc65)O[C@@H]4COP(=O)(O)O[C@H]4[C@@H](O)[C@H](n5cnc6c(N)ncnc65)O[C@@H]4COP(=O)(O)O[C@H]4C[C@H](n5cnc6c(=O)[nH]c(N)nc65)O[C@@H]4COP(=O)(O)O[C@H]4C[C@H](n5cc(C)c(=O)[nH]c5=O)O[C@@H]4COP(=O)(O)O[C@H]4C[C@H](n5cnc6c(N)ncnc65)O[C@@H]4COP(=O)(O)O[C@H]4C[C@H](n5cnc6c(N)ncnc65)O[C@@H]4COP(=O)(O)O[C@H]4C[C@H](n5cnc6c(=O)[nH]c(N)nc65)O[C@@H]4COP(=O)(O)O[C@H]4C[C@H](n5cc(C)c(=O)[nH]c5=O)O[C@@H]4COP(=O)(O)O[C@H]4C[C@H](n5cnc6c(=O)[nH]c(N)nc65)O[C@@H]4COP(=O)(O)O[C@H]4C[C@H](n5cnc6c(N)ncnc65)O[C@@H]4COP(=O)(O)O[C@H]4C[C@H](n5cnc6c(=O)[nH]c(N)nc65)O[C@@H]4COP(=O)(O)O[C@H]4C[C@H](n5cc(C)c(=O)[nH]c5=O)O[C@@H]4COP(=O)(O)O[C@H]4C[C@H](n5cnc6c(=O)[nH]c(N)nc65)O[C@@H]4COP(=O)(O)O[C@H]4C[C@H](n5cnc6c(N)ncnc65)O[C@@H]4COP(=O)(O)O[C@H]4C[C@H](n5cnc6c(=O)[nH]c(N)nc65)O[C@@H]4COP(=O)(O)O[C@H]4C[C@H](n5cc(C)c(=O)[nH]c5=O)O[C@@H]4COP(=O)(O)O[C@H]4C[C@H](n5cc(C)c(=O)[nH]c5=O)O[C@@H]4COP(=O)(O)O[C@H]4C[C@H](n5cnc6c(=O)[nH]c(N)nc65)O[C@@H]4COP(=O)(O)O[C@H]4C[C@H](n5ccc(N)nc5=O)O[C@@H]4COP(=O)(O)O[C@H]4C[C@H](n5cnc6c(=O)[nH]c(N)nc65)O[C@@H]4COP(=O)(O)O[C@H]4C[C@H](n5cnc6c(=O)[nH]c(N)nc65)O[C@@H]4CO)NCOC2[C@@H]3O)c(=O)[nH]c1=O`, the result was Active. Take `Cc1cn([C@H]2C[C@H](OP(=O)(O)OC[C@H]3O[C@@H](n4cnc5c(=O)[nH]c(N)nc54)C[C@@H]3OP(=O)(O)OC[C@H]3O[C@@H](n4cnc5c(N)ncnc54)C[C@@H]3OP(=O)(O)OC[C@H]3O[C@@H](n4cnc5c(=O)[nH]c(N)nc54)C[C@@H]3OP(=O)(O)OC[C@H]3O[C@@H](n4cc(C)c(=O)[nH]c4=O)C[C@@H]3O)[C@@H](COP(=O)(O)O[C@H]3[C@@H](O)[C@H](n4cnc5c(=O)[nH]c(N)nc54)O[C@@H]3COP(=O)(O)O[C@H]3[C@@H](O)[C@H](n4cnc5c(N)ncnc54)O[C@@H]3COP(=O)(O)O[C@H]3C[C@H](n4cnc5c(=O)[nH]c(N)nc54)O[C@@H]3COP(=O)(O)O[C@H]3C[C@H](n4cc(C)c(=O)[nH]c4=O)O[C@@H]3COP(=O)(O)O[C@H]3C[C@H](n4cnc5c(N)ncnc54)O[C@@H]3COP(=O)(O)O[C@H]3C[C@H](n4cnc5c(N)ncnc54)O[C@@H]3COP(=O)(O)O[C@H]3C[C@H](n4cnc5c(=O)[nH]c(N)nc54)O[C@@H]3COP(=O)(O)O[C@H]3C[C@H](n4cc(C)c(=O)[nH]c4=O)O[C@@H]3COP(=O)(O)O[C@H]3C[C@H](n4cnc5c(=O)[nH]c(N)nc54)O[C@@H]3COP(=O)(O)O[C@H]3C[C@H](n4cnc5c(N)ncnc54)O[C@@H]3COP(=O)(O)O[C@H]3C[C@H](n4cnc5c(=O)[nH]c(N)nc54)O[C@@H]3COP(=O)(O)O[C@H]3C[C@H](n4cc(C)c(=O)[nH]c4=O)O[C@@H]3COP(=O)(O)O[C@H]3C[C@H](n4cnc5c(=O)[nH]c(N)nc54)O[C@@H]3COP(=O)(O)O[C@H]3C[C@H](n4cnc5c(N)ncnc54)O[C@@H]3COP(=O)(O)O[C@H]3C[C@H](n4cnc5c(=O)[nH]c(N)nc54)O[C@@H]3COP(=O)(O)O[C@H]3C[C@H](n4cc(C)c(=O)[nH]c4=O)O[C@@H]3COP(=O)(O)O[C@H]3C[C@H](n4cc(C)c(=O)[nH]c4=O)O[C@@H]3COP(=O)(O)O[C@H]3C[C@H](n4cnc5c(=O)[nH]c(N)nc54)O[C@@H]3COP(=O)(O)O[C@H]3C[C@H](n4ccc(N)nc4=O)O[C@@H]3COP(=O)(O)O[C@H]3C[C@H](n4cnc5c(=O)[nH]c(N)nc54)O[C@@H]3COP(=O)(O)O[C@H]3C[C@H](n4cnc5c(=O)[nH]c(N)nc54)O[C@@H]3CO)O2)c(=O)[nH]c1=O`: the outcome was Active.
